Read-outs that look alike come from different tables or passages of the source.
How the values were obtained:
HIV-1 [1] = settings: drug - cut-off, Larder & Harrigan AIDS 2000; cited from earlier work
[2] = test system: patient's recombinant virus (HIV-1); experiment: Phenotypic susceptibility, MT-4 cell viral cytopathic effect protection assay (fold resistance vs wild-type control virus); type: cell-based
Description: Phenotypic susceptibility was determined using a MT-4 cell viral cytopathic effect protection assay. See, e.g., Kashiwase et al., Chemotherapy 45(1):48-55 (1999), expressly incorporated herein by reference; Larder et al., Antimicrob. Agents Chemother. 43(8): 1961-1967 (1999). […] The procedure is also described in WO 97/27480.

HIV-1 [3] = settings: cited from earlier work
[4] = HIV-1 mutation 333D/E in addition to M184V

CC(C)(C)NC(=O)[C@@H]1CN(Cc2cccnc2)CCN1C[C@@H](O)C[C@@H](Cc1ccccc1)C(=O)N[C@H]1c2ccccc2C[C@H]1O [Indinavir]
Biological cut-off (fold resistance) (HIV-1 [1]): 3.0

Cc1cccc(C)c1OCC(=O)N[C@@H](Cc1ccccc1)[C@@H](O)C[C@H](Cc1ccccc1)NC(=O)[C@H](C(C)C)N1CCCNC1=O [Lopinavir]
Biological cut-off (fold resistance) (HIV-1 [1]): 2.5

Nc1nc(NC2CC2)c2ncn([C@H]3C=C[C@@H](CO)C3)c2n1 [1592 U89]
Drug resistance level (from the phenotypic data) ([2]; test sample 1): S/S (A fold resistance of less than or equal to 4 is considered to be) | Drug resistance level (from the phenotypic data) ([2]; test sample 2): S (A fold resistance of less than or equal to 4 is considered to be) | Drug resistance level (from the phenotypic data) ([2]; test sample 3): S/S (A fold resistance of less than or equal to 4 is considered to be) | Drug resistance level (from the phenotypic data) ([2]; test sample 4): S/S (A fold resistance of less than or equal to 4 is considered to be) | Drug resistance level (from the phenotypic data) ([2]; test sample 5): S/S (A fold resistance of less than or equal to 4 is considered to be) | Drug resistance level (from the phenotypic data) ([2]; test sample 6): I (greater than 4 and less than 10 is considered to be) | Drug resistance level (from the phenotypic data) ([2]; test sample 7): S/S (A fold resistance of less than or equal to 4 is considered to be) | Drug resistance level (from the phenotypic data) ([2]; test sample 8): I (greater than 4 and less than 10 is considered to be) | Drug resistance level (from the phenotypic data) ([2]; test sample 9): S/S (A fold resistance of less than or equal to 4 is considered to be) | Drug resistance level (from the phenotypic data) ([2]; test sample 10): S/S (A fold resistance of less than or equal to 4 is considered to be) | Biological cut-off (fold resistance) (HIV-1 [1]): 3.0

Nc1ccn([C@H]2CC[C@@H](CO)O2)c(=O)n1 [DDC]
Biological cut-off (fold resistance) (HIV-1 [1]): 2.0

Cc1ccnc2c1NC(=O)c1cccnc1N2C1CC1 [Nevirapine]
Biological cut-off (fold resistance) (HIV-1 [1]): 8.0

Cc1cn([C@H]2C=C[C@@H](CO)O2)c(=O)[nH]c1=O [D4T]
Mean fold change of IC50 ([2]; 92 of 188 test samples with d4T IC50<3-fold): 1.1 fold | Mean fold change of IC50 ([2]; 96 of 188 test samples with d4T IC50>3-fold): 7.7 fold | Mean fold change of IC50 ([2]; 1040 of 2286 samples with d4T IC50<3-fold): 1.2 fold | Mean fold change of IC50 ([2]; 1246 of 2286 samples with d4T IC50>3-fold): 9.0 fold | Biological cut-off (fold resistance) (HIV-1 [1]): 1.75

Nc1ccn([C@@H]2CS[C@H](CO)O2)c(=O)n1 [3TC]
Drug resistance level (from the phenotypic data) ([2]; test sample 1): S/S (A fold resistance of less than or equal to 4 is considered to be) | Drug resistance level (from the phenotypic data) ([2]; test sample 2): R/R (if the value is greater than 10, it is considered to be) | Drug resistance level (from the phenotypic data) ([2]; test sample 3): R/R (if the value is greater than 10, it is considered to be) | Drug resistance level (from the phenotypic data) ([2]; test sample 4): S/S (A fold resistance of less than or equal to 4 is considered to be) | Drug resistance level (from the phenotypic data) ([2]; test sample 5): R/R (if the value is greater than 10, it is considered to be) | Drug resistance level (from the phenotypic data) ([2]; test sample 6): R (if the value is greater than 10, it is considered to be) | Drug resistance level (from the phenotypic data) ([2]; test sample 7): R/R (if the value is greater than 10, it is considered to be) | Drug resistance level (from the phenotypic data) ([2]; test sample 8): R/R (if the value is greater than 10, it is considered to be) | Drug resistance level (from the phenotypic data) ([2]; test sample 9): R/R (if the value is greater than 10, it is considered to be) | Drug resistance level (from the phenotypic data) ([2]; test sample 10): S/S (A fold resistance of less than or equal to 4 is considered to be) | Biological cut-off (fold resistance) (HIV-1 [1]): 4.5 | Effect of mutation on resistance (HIV-1 [3]; [4]): dual AZT/3TC resistance | Effect of mutation on resistance (HIV-1 [3]; HIV-1 mutation M184V): confers resistance

CC(C)c1nc(CN(C)C(=O)N[C@H](C(=O)N[C@@H](Cc2ccccc2)C[C@H](O)[C@H](Cc2ccccc2)NC(=O)OCc2cncs2)C(C)C)cs1 [Ritonavir]
Biological cut-off (fold resistance) (HIV-1 [1]): 3.5

OC[C@@H]1CC[C@H](n2cnc3c(O)ncnc32)O1 [DDI, 2′,3′-dideoxyinosine]
Biological cut-off (fold resistance) (HIV-1 [1]): 2.0

Cc1c(O)cccc1C(=O)N[C@@H](CSc1ccccc1)[C@H](O)CN1C[C@H]2CCCC[C@H]2C[C@H]1C(=O)NC(C)(C)C [Nelfinavir]
Biological cut-off (fold resistance) (HIV-1 [1]): 4.0

Cc1cn([C@H]2C[C@H](N=[N+]=[N-])[C@@H](CO)O2)c(=O)[nH]c1=O [AZT, 3′-azido-3′-deoxythymidine]
Biological cut-off (fold resistance) (HIV-1 [1]): 4.0 | Effect of mutation on resistance (HIV-1 [3]; [4]): dual AZT/3TC resistance | Effect of mutation on resistance (HIV-1 [3]; HIV-1 mutation M184V): reverses AZT resistance

O=C1Nc2ccc(Cl)cc2[C@@](C#CC2CC2)(C(F)(F)F)O1 [DMP266]
Biological cut-off (fold resistance) (HIV-1 [1]): 6.0

CC(C)Nc1cccnc1N1CCN(C(=O)c2cc3cc(NS(C)(=O)=O)ccc3[nH]2)CC1 [Delavirdine]
Biological cut-off (fold resistance) (HIV-1 [1]): 10.0

CC(C)CN(C[C@@H](O)[C@H](Cc1ccccc1)NC(=O)O[C@H]1CCOC1)S(=O)(=O)c1ccc(N)cc1 [VX-478]
Biological cut-off (fold resistance) (HIV-1 [1]): 2.0 | Effect of mutation on susceptibility in vitro (HIV-1 [3]; HIV-1 mutation N88S): hypersensitivity

CC(C)(C)NC(=O)[C@@H]1C[C@@H]2CCCC[C@@H]2CN1C[C@@H](O)[C@H](Cc1ccccc1)NC(=O)[C@H](CC(N)=O)NC(=O)c1ccc2ccccc2n1 [Saquinavir]
Biological cut-off (fold resistance) (HIV-1 [1]): 2.5
